Test results: patent publication US9409975B2, “Antibody binding microbial heparin binding motif to retard or prevent microbial biofilm formation on implanted medical devices” (priority 2012, dated 2016)

Columns and labels:
C. albicans = test: Histatin killing assay after heparin preincubation; type: cell-based, Candida albicans; settings: 500 units/ml heparin, then histatin 5 (15 μM)
Method: In order to evaluate the consequences of removal of Ssa1 and Ssa2 (Table 4), both targets of histatin, a histatin killing assay was performed as follows. C. albicans strains were grown to late log phase overnight in YPD. A single colony was suspended in 1 ml YPD, diluted 1:500 into 10 ml YPD, and incubated overnight at 30° C. and 225 rpm to OD600 1.0. Yeast cells were washed twice in PBS and 2×10^4 cells suspended in 250 μl RPMI+10 mM HEPES, pH 7.0, with or without 500 units/ml heparin (Sigma). The cells were incubated at 37° C. for one hour with shaking, washed twice with 10 mM phosphate buffer, pH 7.4, and suspended in 20 μl phosphate buffer. Histatin 5 (final concentration 15 μM; Peptides International) or 10 mM phosphate buffer was added to the preincubated cells (total volume 40 μl) and incubated further at 37° C. for 90 minutes with shaking. YPD (360 ul) was added to each tube, a 40 μl aliquot spread onto YPD plates, and colonies counted after two days. The effect of heparin treatment was determined by the formula % change=[(cfu+heparin)−(cfu−heparin)]/(cfu+heparin).

[1] = tested on: Candida albicans BWP17 wt; test: Percent hyphae by flow cytometry with or without heparin; type: cell-based; settings: 100 units/ml heparin; YPD 30° C. or RPMI-HEPES 37° C.
Method: Flow cytometry was performed by inoculating a single colony of BWP17 wt into 3 ml YPD medium and incubating overnight at 30° C. with shaking at 225 rpm. […] One ml aliquots of each mixture were removed, pelleted (7,000 rpm for 3 min), washed twice with PBS, and reconstituted in 1 ml PBS. Flow cytometry analysis was performed using the Imagestream^X flow cytometer (Amnis, Seattle Wash.) equipped with a 405 nm, 488 nm, 653 nm, laser and multi-mag function. The 40× magnification, 10 mm/sec flow rate, and 488 nm laser were used to collect SSC and Brightfield parameters. The flow cell allows particles up to 100 μm wide (height unlimited) to be collected in the instrument. INSPIRE (v.6.0) software was used to acquire events. Software analysis using IDEAS (v5.0) identified percent hyphae using aspect ratio, height and width features using the side scatter (Channel 6) and brightfield (Channel 1) parameters. Objects were selected within each file and tagged to use as identification of truth sets within the population.

[2] = tested on: Candida albicans BWP17 wt; test: Filipin and calcofluor white staining microscopy with or without heparin; type: cell-based; settings: 100 units/ml heparin, heparin-treated vs untreated organisms
Method: Heparin effect on Candida albicans growth and morphology was determined. A single colony of BWP17 wt was inoculated into 3 ml YPD medium and incubated overnight at 30° C. with shaking at 225 rpm. Overnight cultures were diluted to an OD600 of 0.1 in 5 ml of YPD (yeast) or RPMI-HEPES (hyphae) in a 50 ml conical polypropylene tube and incubated in the presence or absence of 100 units/ml preservative-free pharmaceutical heparin at 30° C. for six hours. Cells (1 ml) were fixed with an equal volume of 4% formaldehyde in FACS buffer at 4° C. for one hour, then pelleted (7,000 rpm for 3 minutes) and washed with PBS. After reconstitution in 0.5 ml PBS, filipin (50 mg/ml stock solution in DMSO) was added to a final concentration of 100 μg/ml and incubated with cells at room temperature for five minutes. Cells were pelleted, washed with PBS and mounted on a slide using Fluoromount G. For calcofluor white staining, after six hours incubation, 1 μl of 1 mg/ml stock solution of calcofluor white in 0.1 N NaOH was added to 100 μl cells to a final calcofluor white concentration of 10 μg/ml.
Microscopy was performed by imaging filipin, PKH26, DAPI, and heparin-Alexa Fluor 488 on a Nikon Ti-E inverted microscope with a 100×CFI APO oil NA 1.49 objective. Filipin was excited with a Prior Lumen 200 metal halide light source set at 10% light output. […]

heparin
decrease in histatin-mediated killing (C. albicans; INT1 double disruptant): 1.5% | decrease in histatin-mediated killing (C. albicans; wild type C. albicans): 25% | percent hyphae by flow cytometry [1]: did not differ | integrity of membrane sterols (filipin) and location of septin rings (calcofluor white) [2]: identical
